Source: patent US20110230497A1, “BIOLOGICALLY ACTIVE AMIDES” (H. Lundbeck A/S, priority 2008, published 2011)

biological target: T1, NPY Y5 receptor (Homo sapiens, UniProt Q15761); test: NPY Y5-dependent inhibition of forskolin-stimulated cAMP accumulation; format: cell-based; parameters: expressed in transfected cells; conditions: effect on agonist (NPY) activity, cAMP HTRF
T1 sequence (Q15761 1-445): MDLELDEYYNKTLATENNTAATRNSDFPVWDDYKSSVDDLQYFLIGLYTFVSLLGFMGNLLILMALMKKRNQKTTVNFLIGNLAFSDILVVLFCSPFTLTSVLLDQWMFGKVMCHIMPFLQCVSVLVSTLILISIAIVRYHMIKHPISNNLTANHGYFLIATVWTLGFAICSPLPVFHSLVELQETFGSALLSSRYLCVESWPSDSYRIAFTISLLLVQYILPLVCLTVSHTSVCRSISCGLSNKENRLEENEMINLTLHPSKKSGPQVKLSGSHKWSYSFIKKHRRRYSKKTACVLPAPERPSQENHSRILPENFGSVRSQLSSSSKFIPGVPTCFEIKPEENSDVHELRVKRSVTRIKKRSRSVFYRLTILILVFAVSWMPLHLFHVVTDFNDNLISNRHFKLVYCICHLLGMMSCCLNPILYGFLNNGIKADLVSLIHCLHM
Description: Stably transfected cells were seeded into 96-well microtiter plates and cultured until confluent. To reduce the potential for receptor desensitization, the serum component of the media was reduced to 1.5% for 4 to 16 hours before the assay. Cells were washed in […], or HBS (150 mM NaCl, 20 mM HEPES, 1 mM CaCl2, 5 mM KCl, 1 mM MgCl2, and 10 mM glucose) supplemented with 0.1% bovine serum albumin plus 100 uM IBMX. Test compounds were diluted to desired concentrations with assay buffer in the presence of 10% DMSO, then transferred to the cell plate and allowed to incubate for 20 min at 37° C. in 5% CO2 (final DMSO=1%). Cells were then stimulated with NPY (up to 10 uM) for a period of 5 min, followed by forskolin (10 uM) for another 5 min. The assay was then terminated and intracellular cAMP was quantified by with highthroughput time-resolved fluorometry (HTRF kit from CisBio, Bedford, Mass.). The effect of the test compound on agonist (NPY) activity were analyzed using nonlinear regression and statistical techniques available in the GraphPAD Prism package (San Diego, Calif.).

function at the NPY Y5 receptor	SMILES
antagonists	CC(=O)N1CCC(CC(=O)Nc2ccc(-c3cc(F)cc(F)c3)cn2)CC1 [Example 2a, 2-(1-Acetyl-piperidin-4-yl)-N-[5-(3,5-difluoro-phenyl)-pyridin-2-yl]-acetamide]
antagonists	CC(=O)N1CCC(C(C)(C)C(=O)Nc2ccc(-c3cc(F)cc(F)c3)cn2)CC1 [Example 4a, 2-(1-Acetyl-piperidin-4-yl)-N-[5-(3,5-difluoro-phenyl)-pyridin-2-yl]-isobutyramide]

biological target: T1, NPY Y5 receptor; test: Radioligand (125I-PYY) binding to membrane suspensions, cloned human NPY Y5 receptor; parameters: expressed in transfected cells; host or cells: LM(tk-) cells (typically); conditions: 125I-PYY competition binding, membranes of transfected cells; read-out: Ki (nM), binding affinity of selected compounds
Description: The pharmacological properties of the compounds of the present invention were evaluated at the cloned human NPY Y5 receptor using the protocols disclosed in U.S. Pat. No. 6,124,331, the contents of which are hereby incorporated by reference, or in an assay as similarly described therein for NPY Y5 binding activity. The procedures for cell culture, transient transfection and membrane harvest, which are well known in the art, are described therein
Briefly, membrane suspensions from transfected cells (typically expressed in LM(tk-) cells) and ^125I-PYY radioligand (PerkinElmer, Waltham, Mass.) were diluted in binding buffer supplemented with 0.1% bovine serum albumin to yield an optimal membrane protein concentration so that ^125I-PYY bound by membranes in the assay was less than 10% of ^125I-PYY delivered to the sample (100,000 dpm/sample=0.08 nM for competition binding assays). Test compounds were diluted to desired concentrations with supplemented binding buffer in the presence of 30% DMSO. The binding assay was performed in 96-well polypropylene microtiter plates by mixing ^125I-PYY, test compound (25 μL), and finally, membrane suspensions (200 μL). Final DMSO=3%. Samples were incubated in at room temperature for about 120 min. Incubations were terminated by filtration over Whatman GF/C filters (pre-coated with 1% polyethyleneimine and air-dried before use), followed by washing with ice-cold binding buffer. Filter-trapped membranes were impregnated with MeltiLex solid scintillant (Wallac, Turku, Finland) and counted for ^125I-PYY in a Wallac MicroBeta Trilux. Non-specific binding was defined by 1000 nM porcine NPY. Specific binding was typically 80%; most non-specific binding was associated with the filter. Binding data were analyzed using nonlinear regression and statistical techniques available in the GraphPAD Prism package (San Diego, Calif.).

SMILES	Ki
CC(=O)N1CCN(CC(=O)Nc2ccc(-c3cc(F)cc(F)c3)cn2)CC1 [Example 1a, 2-(4-Acetyl-piperazin-1-yl)-N-[5-(3,5-difluoro-phenyl)-pyridin-2-yl]-acetamide]	220 nM
CC(=O)N1CCN(CC(=O)Nc2ccc(-c3cc(F)cc(F)c3)cn2)C[C@@H]1C [Example 1e, 2-((S)-4-Acetyl-3-methyl-piperazin-1-yl)-N-[5-(3,5-difluoro-phenyl)-pyridin-2-yl]-acetamide]	120 nM
CC(=O)N1CCC(CC(=O)Nc2ccc(-c3cc(F)cc(F)c3)cn2)CC1 [Example 2a, 2-(1-Acetyl-piperidin-4-yl)-N-[5-(3,5-difluoro-phenyl)-pyridin-2-yl]-acetamide]	46 nM
CS(=O)(=O)N1CCC(CC(=O)Nc2ccc(-c3cc(F)cc(F)c3)nc2)CC1 [Example 2aj, N-[6-(3,5-Difluoro-phenyl)-pyridin-3-yl]-2-(1-methanesulfonyl-piperidin-4-yl)-acetamide]	28 nM
O=C(C[C@H]1CCN2C(=O)CC[C@H]2C1)Nc1ccc(-c2cc(F)cc(F)c2)cn1 [Example 3a]	36 nM
O=C(C[C@H]1CCN2C(=O)OC[C@H]2C1)Nc1ccn(-c2ccc(Cl)cc2F)n1 [Example 3cc, N-[1-(4-Chloro-2-fluoro-phenyl)-1H-pyrazol-3-yl]-2-((7S,8aR)-3-oxo-hexahydro-oxazolo[3,4-a]pyridin-7-yl)-acetamide]	8 nM
O=C(C[C@H]1CCN2C(=O)OC[C@H]2C1)Nc1cc(-c2cccc(C(F)(F)F)c2)no1 [Example 3hh, 2-((7S,8aR)-3-oxo-hexahydro-oxazolo[3,4-a]pyridin-7-yl)-N-[3-(3-trifluoromethyl-phenyl)-isoxazol-5-yl]-acetamide]	39 nM
CC1(C)OC(=O)N2CCC(CC(=O)Nc3ccn(-c4ccccc4F)n3)CC21 (centres unmarked) [Example 3i, 2-(1,1-Dimethyl-3-oxo-hexahydro-oxazolo[3,4-a]pyridin-7-yl)-N-[1-(2-fluoro-phenyl)-1H-pyrazol-3-yl]-acetamide]	50 nM
O=C(CC1CCN2C(=O)OCC2C1)Nc1cnc(-c2cc(F)cc(F)c2)cn1 (centres unmarked) [Example 3l, N-[5-(3,5-Difluoro-phenyl)-pyrazin-2-yl]-2-(3-oxo-hexahydro-oxazolo[3,4-a]pyridin-7-yl)-acetamide]	25 nM
O=C(C[C@H]1CCN2C(=O)OC[C@H]2C1)Nc1ccc(-c2cc(F)cc(F)c2)cn1 [Example 3o, N-[5-(3,5-Difluoro-phenyl)-pyridin-2-yl]-2-((7S,8aR)-3-oxo-hexahydro-oxazolo[3,4-a]pyridin-7-yl)-acetamide]	17 nM

The next lines start with the values.

Ki	SMILES
66 nM	CC(=O)N1CCC(C(C)(C)C(=O)Nc2ccc(-c3cc(F)cc(F)c3)cn2)CC1 [Example 4a, 2-(1-Acetyl-piperidin-4-yl)-N-[5-(3,5-difluoro-phenyl)-pyridin-2-yl]-isobutyramide]
120 nM	CC(=O)N1CCC(CC(=O)Nc2ccc(-c3ccccc3)cc2)CC1 [Example 5a, 2-(1-Acetyl-piperidin-4-yl)-N-biphenyl-4-yl-acetamide]
2.7 nM	O=C(C1CCC1)N1CCC(C2(C(=O)Nc3ccc(-c4cc(F)cc(F)c4)cc3)CC2)CC1 [Example 5j]
14 nM	O=C(c1ccccn1)N1CCC(C2(C(=O)Nc3ccc(-c4cc(F)cc(F)c4)cc3)CC2)CC1 [Example 5m]
570 nM	Cn1nccc1C(=O)N1CCC(C(C)(C)C(=O)Nc2ccc(-c3cc(F)cc(F)c3)cn2)CC1 [Example 5q, N-[5-(3,5-Difluoro-phenyl)-pyridin-2-yl]-2-[1-(2-methyl-2H-pyrazole-3-carbonyl)-piperidin-4-yl]-isobutyramide]
